Experimental data from EP4755885A1 (Shanghai Hansoh Biomedical Co., Ltd., priority 2023, dated 2025).

How the values were obtained:
[1] = Pharmacokinetic evaluation in Macaca fascicularis monkeys, intravenous administration; type: in vivo; conditions: cynomolgus monkey, I.V. 0.2 mg/kg, plasma
Procedure: Macaca fascicularis monkeys were used as test animals to study the pharmacokinetic behavior of the compound of the present invention, administered intravenously at a dose of 0.2 mg/kg, in Macaca fascicularis monkeys (plasma).
Macaca fascicularis monkeys, 3 per group, male, Guangxi Xiongsen, Animal Production License No.: SCXK (Gui) 2021-0004).
Preparation of drug for intravenous administration: 5%DMSO+10%Solutol HS15+85%PBS
The compound of the present invention was weighed. 5% DMSO was first added according to the proportion in the total volume, followed by vortexing and sonication for 2 min to achieve complete dissolution. Then 10% Solutol HS15 was added, followed by vortexing and sonication for 2 min to achieve complete dissolution. Finally, 85% PBS was added, followed by vortexing and sonication for 5 min and filtering through a 0.22 um filter membrane to obtain a colorless, transparent, clear solution having a concentration of 0.1 mg/mL.
Three Macaca fascicularis monkeys, male, respectively administered I.V. after fasting overnight, at a dose of 0.2 mg/kg and in an administration volume of 2 mL/kg.
0.5 mL of blood was collected from the forelimb vein of the Macaca fascicularis monkeys before administration and at 0.083, 0.25, 0.5, 1, 2, 4, 8, and 24 h after administration. The blood samples were placed in EDTA-K2 tubes and centrifuged at 6000 rpm at 4°C for 6 min to separate plasma, which was stored at -80°C.
40 µL of a plasma sample was added with 160 µL of acetonitrile for precipitation, and after mixing, the mixture was centrifuged at 3500 × g for 5 to 20 min.
100 µL of the supernatant solution after treatment was taken for LC/MS/MS analysis of the concentration of the test compound.
Liquid phase condition: Shimadzu LC-20AD pump Mass spectrometry condition: AB Sciex API 4000 mass spectrometer Chromatographic column: phenomenex Gemiu 5 um C18 50 × 4.6 mm Mobile phase: Solution A was 0.1% formic acid aqueous solution, and Solution B was acetonitrile Flow rate: 0.8 mL/min Elution time: 0-4.0 min, the eluent was as follows:
Main pharmacokinetic parameters were calculated using WinNonlin 8.2. The results of the Macaca fascicularis monkey pharmacokinetic experiment are shown in Table 8 below: Table 8: Pharmacokinetic parameters of injection administration of the compound of the present invention in Macaca fascicularis monkeys

[2] = Pharmacokinetic evaluation in rats, oral administration; set-up: species or system SD rats; conditions: rat, in vivo, p.o. 5 mg/kg, plasma
Procedure: SD rats were used as test animals to study the pharmacokinetic behavior of the following example compounds, administered orally at a dose of 5 mg/kg, in the plasma of the rats. SD rats, 3 per group, male. […] An example compound was weighed and added to a 4 mL glass bottle, and the solution was added. […] Sonication was performed for 10 min to obtain a colorless clear solution having a concentration of 0.5 mg/mL. […] The blood samples were placed in EDTA-K2 tubes and centrifuged at 6000 rpm at 4°C for 6 min to separate plasma, which was stored at -80°C. […] • Liquid phase conditions: Shimadzu LC-20AD pump • Mass spectrometry conditions: AB Sciex API 4000 mass spectrometer • Chromatographic column: phenomenex Gemiu 5 um C18 50 × 4.6 mm • Mobile phase: Solution A was 0.1% formic acid aqueous solution, and Solution B was methanol • Flow rate: 1.0 mL/min • Elution time: 0-4.0 min, the eluent was as follows: […] The results of the rat pharmacokinetic experiment are shown in the table below: Table 5: Pharmacokinetic parameters of oral administration of the compound of the present invention in rats

[2H]C([2H])([2H])n1nc2c3c(c(-n4ccn(-c5c6c(nn5-c5cc(C)c(F)c(C)c5)CCN(C(=O)c5cc7cc([C@H]8CCOC(C)(C)C8)ccc7n5[C@@]5(c7noc(=O)[nH]7)C[C@@H]5C)[C@H]6C)c4=O)ccc31)OCCC2 [Example 282, 3-((1S,2S)-1-(5-((S)-2,2-dimethyltetrahydro-2H-pyran-4-yl)-2-((S)-2-(4-fluoro-3,5-dimethylphenyl)-4-methyl-3-(3-(2-(methyl-d3)-2,7,8,9-tetrahydrooxaheptano[4,3,2-cd]indazol-5-yl)-2-carbonyl-2,3-dihydro-1H-imidazol-1-yl)-4,5,6,7-tetrahydro-2H-pyrazolo[4,3-c]pyridine-5-carbonyl)-1H-indol-1-yl)-2-methylcyclopropyl)-1,2,4-oxadiazol-5(4H)-one]
AUC(0-inf) [1]: 1930 ng·h/mL
AUC(0-t) [1]: 1680 ng·h/mL
C0 [1]: 1080 ng/mL
half-life [1]: 9.8 h
MRT inf ([1]; read-out: MRT 0-∞): 10.3 h
AUC(0-inf) [2]: 13900 ng·h/mL
AUC(0-t) at 24 h [2]: 12200 ng·h/mL
Cmax [2]: 971 ng/mL
Tmax [2]: 6 h
half-life [2]: 7.3 h
MRT inf ([2]; read-out: MRT 0-∞): 12 h
